Experiment [1] relates to T-47D cell. To be noted: T-47D human derived breast cancer cell, compared with SK-BR-3; cited from earlier work.
The test system of experiment [2] is SK-BR-3. To be noted: SK-BR-3 breast cancer cell; stated as known; cited from earlier work.
The subject of experiment [3] is MCF7. Particulars: MCF7 breast cancer cells; cited from earlier work.
Experiment [4] relates to SHSY5Y cell. The experiment in a line: Exposure of SHSY5Y neuroblastoma cells to differentiation stimulants (neuron projection extension, marker enzyme expression). The format is cell-based. To be noted: human neuroblastoma. An excerpt: The functions of (1) and (2) are different, but share the same properties in terms of extension of neuron projection. Therefore, cellular components necessary for these two intracellular alteration were specified experimentally by means of RNA interference method. As such, it was obtained that the component collection (3) necessary for the alteration from SHSY5Y to (1) are {JAK1, JAK3, ROR, and RET}. On the other hand, the component collection (4) necessary for the alteration from SHSY5Y cells to (2), are {NTRK1, EPHB2, INSR, RDGFRA, ROR and RET}. When comparing and calculation of intersection is done for (3) and (4), the intersection (5) was obtained to read {ROR and RET}. Next, the collection (6) {JAK1 and JAK3} by subtraction of (3)−(5) and the collection (5) were analyzed in terms of an intermolecular interaction, and the existence of a pathway of a molecular signals from (6) to (5) (FIG. 3A) was determined. Furthermore, the collection (7) which was obtained by the subtraction of (4)−(5), and the collection (5) were analyzed in terms of an intermolecular interaction, and the existence of a pathway of molecular signals from (7) to (5) (FIG. 3B) was further determined. The common components and pathway relating to the projection extension by retinoic acid (RA) and Nerve Growth Factor (NGF) are shown in FIG. 4.

For the compound `COc1cccc2c1C(=O)c1c(O)c3c(c(O)c1C2=O)C[C@@](O)(C(=O)CO)C[C@@H]3O[C@H]1C[C@H](N)[C@H](O)[C@H](C)O1` [doxorubicin], in experiment [1], the DXR sensitivity entry is “same DXR sensitivity as the SK-BR-3”. In addition, the “effect on cell growth” value in experiment [2] was “growth inhibition”. Besides, the “DXR sensitivity / resistance” value in experiment [3] is listed as “DXR resistance”.
As for “Nerve Growth Factor: Nerve Growth Factor, stimulant triggering neurite outgrowth of SHSY5Y cells”, in experiment [4], the “expression of tyrosine hydroxylase” value is reported as “tyrosine hydroxylase was expressed” and the “extension of neuron projection” value is “caused extension of neuron projection”.

The record behind these values is US20090004171A1, “COMPOUND PROFILING METHOD” (CYTOPATHFINDER, INC., priority 2007, published 2009).
